Assay results reported in patent publication US10702512B2, “Treatment of debilitating fatigue” (A. CARLSSON RESEARCH AB, priority 2015, dated 2020).

How the values were obtained:
ME/CFS patients [1] = assay: FibroFatigue scale (FF) total score, phase II clinical study; format: in vivo, human
Description: As used herein, the term “FF-scale” or “FF” refers to the FibroFatigue scale also known as the fibromyalgia and chronic fatigue syndrome rating scale described in by Zachrisson and coworkers (Zachrisson O, et al, (2002) J Psychosom Res Jun; 52(6):501-9). The FibroFatigue scale is an observer's rating scale with 12 items measuring pain, muscular tension, fatigue, concentration difficulties, failing memory, irritability, sadness, sleep disturbances, and autonomic disturbances and irritable bowel, headache and subjective experience of infection. […] Circular coated tablets for oral use of 15 mg and matching placebos was used. The tablets were administered by research nurses at the study site. The tablets were circular coated tablets for oral use containing 15 mg OSU6162. Matching placebos were used. The start dose was 15 mg OSU6162 twice daily (before breakfast and lunch) during 1 week with dose increase up to 30 mg twice daily during the following week. Additionally, the clinical effect was evaluated using the FF-scale, The Beck/BDI scale, VAS pain scale and with neuropsychological tests. To examine the effect of treatment and concomitant use of an antidepressant, antidepressant was included as a fixed factor in the analyses. […] Outcome targets FF, MFS and BDI were measured.

ME/CFS patients [2] = assay: Beck Depression Inventory (BDI) total score, phase II clinical study; format: in vivo, human; settings: 2-way ANOVA, OSU6162 vs placebo
Description: Circular coated tablets for oral use of 15 mg and matching placebos was used. The tablets were administered by research nurses at the study site. The tablets were circular coated tablets for oral use containing 15 mg OSU6162. Matching placebos were used. The start dose was 15 mg OSU6162 twice daily (before breakfast and lunch) during 1 week with dose increase up to 30 mg twice daily during the following week. Additionally, the clinical effect was evaluated using the FF-scale, The Beck/BDI scale, VAS pain scale and with neuropsychological tests. To examine the effect of treatment and concomitant use of an antidepressant, antidepressant was included as a fixed factor in the analyses. […] Outcome targets FF, MFS and BDI were measured.

ME/CFS patients [3] = assay: Stroop tests (Victoria version); format: in vivo, human; design: Stroop 2, mean / Stroop 2, Difference / Stroop 2, median / Stroop 3, mean / Stroop 3, Difference / Stroop 3, median / Stroop 1, mean / Stroop 1, Difference / Stroop 1, median: unit not given here
Description: Next, patients were evaluated using a neuropsychological test. 61 patients were included in a neuropsychological examination. All subjects were tested once in connection with the randomization with the BNIS neuropsychological screening test. 20-30 minutes was required for this test. With the purpose of measuring the cognitive effects of the OSU6162 treatment six more tests were distributed at a first occasion before the initiation of treatment and at a second occasion after the treatment was completed. These tests required 20 minutes each. All tests were performed by a neuropsychologist. The Stroop test (Victoria version) is a time-based test sensitive to frontal lobe dysfunction. It measures executive functioning and is validated and used internationally. Depression and anxiety could influence the results. Speeds of processing and conceptual abilities contribute to the performance. It also reflects the ability of concentration. The test consists of three cards each containing six rows of four items. Stroop I is on the first card. In this subtest the subject must name as quickly as possible the color of 24 dots printed in blue, green, red and yellow. Each color is used six times and the four colors are arranged in pseudo-random order within the array, each color appears once in a row. Stroop 2 is on the second card. In this subtest the dots are replaced by common words printed in lower-case letters. The subject is required to name the colors in which the stimuli are presented and to disregard their verbal content. Stroop 3 is on the third card. In this subtest the colored stimuli are the color names “blue, green, red and yellow” printed in lower case letters so that the print color never corresponds to the color name.

water solubility = format: physicochemical; settings: hydrochloride, white powder
Description: The investigated substance is the S enantiomer with the chemical name (S)-3-[3-(methylsulfonyl) phenyl]-1-propylpiperidine hydrochloride, referred herein to as OSU6162. The substance is a white powder with a melting point of 177-182° C. and water solubility of >2000 mg/ml.

ME/CFS patients [4] = assay: Coding test (WAIS subtest); format: in vivo, human; design: key to Coding test score, min / Coding test score, max / Coding test, Difference, increased mean / Coding test score, mean / Coding test score, median: number of symbols correctly copied within 90 seconds
Description: Next, patients were evaluated using a neuropsychological test. 61 patients were included in a neuropsychological examination. All subjects were tested once in connection with the randomization with the BNIS neuropsychological screening test. 20-30 minutes was required for this test. With the purpose of measuring the cognitive effects of the OSU6162 treatment six more tests were distributed at a first occasion before the initiation of treatment and at a second occasion after the treatment was completed. These tests required 20 minutes each. All tests were performed by a neuropsychologist. The Coding test is a subtest from WAIS, Wechsler Adult Intelligence Scale and measures the processing speed. The performance reflects abilities such as visual-motor coordination, motor and mental speed and working memory. It requires the subject to copy, as quickly and correctly as possible, nine symbols, one by one in 93 boxes, placed below each number. The symbol connected with the numbers is available. The score is the number of symbols registered within 90 seconds.

CCCN1CCC[C@@H](c2cccc(S(C)(=O)=O)c2)C1.Cl [OSU6162, (3S)-3-[3-(methylsulfonyl)-phenyl]-1-propylpiperidine hydrochloride]
FF main effect of treatment (ME/CFS patients [1]; 2-way ANOVA, OSU6162 vs placebo): None | FF interaction between treatment with OSU6162 and antidepressant over time (ME/CFS patients [1]; 3-way ANOVA week*treatm*antidepr, F3,180=6.785, p=0.0002): statistically significant 3-way interactions | FF difference between OSU6162 treated and placebo treated patients (ME/CFS patients [1]; patients not on antidepressant therapy, post hoc comparison): No difference | FF change from week 0, difference OSU6162 vs placebo (95% confidence interval) (ME/CFS patients [1]; patients on stable antidepressant therapy, after one week of treatment, F1,56=6.320, p=0.015, Bonferroni): −7.23 (−13.1 to −1.48) | BDI main effect of treatment (ME/CFS patients [2]): None | Stroop 1, max (ME/CFS patients [3]; after treatment): 20 s | Stroop 1, mean (ME/CFS patients [3]; after treatment): 12.77 | Stroop 1, median (ME/CFS patients [3]; after treatment): 12 | Stroop 1, min (ME/CFS patients [3]; after treatment): 8 | Stroop 2, max (ME/CFS patients [3]; after treatment): 29 s | Stroop 2, mean (ME/CFS patients [3]; after treatment): 16.9 | Stroop 2, median (ME/CFS patients [3]; after treatment): 16 | Stroop 2, min (ME/CFS patients [3]; after treatment): 9 | Stroop 3, max (ME/CFS patients [3]; after treatment): 62 s | Stroop 3, mean (ME/CFS patients [3]; after treatment): 23.48 | Stroop 3, median (ME/CFS patients [3]; after treatment): 23 | Stroop 3, min (ME/CFS patients [3]; after treatment): 12 | Stroop tests difference between OSU6162 and placebo groups (ME/CFS patients [3]; before and after treatment): No significant differences | Stroop 1, max (ME/CFS patients [3]; before treatment): 22 s | Stroop 1, mean (ME/CFS patients [3]; before treatment): 13.97 | Stroop 1, median (ME/CFS patients [3]; before treatment): 14 | Stroop 1, min (ME/CFS patients [3]; before treatment): 9 | Stroop 2, max (ME/CFS patients [3]; before treatment): 39 s | Stroop 2, mean (ME/CFS patients [3]; before treatment): 19.5 | Stroop 2, median (ME/CFS patients [3]; before treatment): 19 | Stroop 2, min (ME/CFS patients [3]; before treatment): 10 | Stroop 3, max (ME/CFS patients [3]; before treatment): 51 s | Stroop 3, mean (ME/CFS patients [3]; before treatment): 26.8 | Stroop 3, median (ME/CFS patients [3]; before treatment): 24 | Stroop 3, min (ME/CFS patients [3]; before treatment): 14 | Stroop 1, Difference (ME/CFS patients [3]; before vs after treatment): 1.2 | Stroop 2, Difference (ME/CFS patients [3]; before vs after treatment): 3.2 | Stroop 3, Difference (ME/CFS patients [3]; before vs after treatment): 4.9 | solubility (water solubility): > 2000 mg/mL | Coding test score, max (ME/CFS patients [4]; after treatment): 93 | Coding test score, mean (ME/CFS patients [4]; after treatment): 56.29 | Coding test score, median (ME/CFS patients [4]; after treatment): 56 | Coding test score, min (ME/CFS patients [4]; after treatment): 37 | Coding test, Difference, increased mean (ME/CFS patients [4]; after vs before treatment): 5 | Coding test difference between OSU6162 and placebo groups (ME/CFS patients [4]; before and after treatment): No significant differences | Coding test score, max (ME/CFS patients [4]; before treatment): 80 | Coding test score, mean (ME/CFS patients [4]; before treatment): 51.42 | Coding test score, median (ME/CFS patients [4]; before treatment): 51 | Coding test score, min (ME/CFS patients [4]; before treatment): 31
